Measured values from US4027038A, “Complement inhibitors” (priority 1976, dated 1977).

How the values were obtained:
activated human C1 = target: T1, activated human C1 (Homo sapiens, UniProt P09871); assay: Test, Code 026 (C1 inhibitor); assay type: biochemical; conditions: In Vitro; serial two-fold dilution assay, higher well number indicates higher activity
T1 sequence (P09871 438-688 limits assumed): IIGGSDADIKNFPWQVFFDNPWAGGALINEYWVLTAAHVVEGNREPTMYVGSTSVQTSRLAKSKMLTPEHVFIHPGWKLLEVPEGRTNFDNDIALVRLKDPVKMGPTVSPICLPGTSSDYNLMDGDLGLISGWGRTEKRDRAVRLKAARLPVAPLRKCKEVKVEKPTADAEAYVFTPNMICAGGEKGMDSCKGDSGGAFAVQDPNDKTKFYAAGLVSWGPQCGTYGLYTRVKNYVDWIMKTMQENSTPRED
T1 sequence (P09871 16-437 limits assumed): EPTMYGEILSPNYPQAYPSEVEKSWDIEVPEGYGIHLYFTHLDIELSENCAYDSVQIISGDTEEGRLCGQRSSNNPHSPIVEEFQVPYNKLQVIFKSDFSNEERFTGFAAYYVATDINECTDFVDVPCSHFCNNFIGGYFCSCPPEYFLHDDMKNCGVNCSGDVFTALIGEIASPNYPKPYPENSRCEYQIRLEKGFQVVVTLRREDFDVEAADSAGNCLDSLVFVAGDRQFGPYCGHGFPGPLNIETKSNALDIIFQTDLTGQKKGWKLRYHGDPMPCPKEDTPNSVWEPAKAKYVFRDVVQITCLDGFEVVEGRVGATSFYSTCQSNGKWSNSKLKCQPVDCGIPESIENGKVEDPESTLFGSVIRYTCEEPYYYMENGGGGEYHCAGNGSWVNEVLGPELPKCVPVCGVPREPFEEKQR
Text: (§1) This test measures the ability of activated human C1 to destroy fluid phase human C2 in the presence of C4 and appropriate dilutions of the test compound. An active inhibitor protects C2 from C1 and C4; (ii) Test, Code 035 (C3-C9 inhibitor). This test determines the ability of the late components of human complement (C3-C9 to lyse EAC 142 in the presence of appropriate dilutions of the test compound. An active inhibitor protects EAC 142 from lysis by human C3-C9; (ii) Test, Code 036 (C-Shunt inhibitor)-- In this test human erythrocytes rendered fragile are lysed in autologous serum via the shunt pathway activated by cobra venom factor in the presence of appropriate dilutions of the test compound. Inhibition of the shunt pathway results in failure of lysis; (iv) Forssman Vasculitis Test-- Here, the well known complement dependent lesion, Forssman vasculitis, is produced in guinea pigs by intradermal injection of rabbit anti-Forssman antiserum. The lesion is measured in terms of diameter, edema and hemorrhage and the extent to which a combined index of these is inhibited by prior intraperitoneal injection of the test compound at 200 mg/kg is then reported, unless otherwise stated; (v) Forssman Shock Test-- Lethal shock is produced in guinea pigs by an i.v. injection of anti-Forssman antiserum and the harmonic mean death time of treated guinea pigs is compared with that of simultaneous controls; (vi) Complement Level Reduction Test-- In this test, the above dosed guinea pigs, or other, are bled for serum and the complement level is determined in undiluted serum by the capillary tube method of U.S. Pat. No. 3,876,376 and compared to undosed control guinea pigs; and (vii) Cap 50 Test-- Here, appropriate amounts of the test compound are added to a pool of guinea pig serum in vitro, after which the undiluted serum capillary tube assay referred to above is run. The concentration of compound inhibiting 50% is reported.

[1] = test system: late components of human complement (C3-C9); assay: Test, Code 035 (C3-C9 inhibitor), lysis of EAC 142; assay type: biochemical; conditions: In Vitro; serial two-fold dilution assay, higher well number indicates higher activity
Text: as §1

shunt pathway = assay: Test, Code 036 (C-Shunt inhibitor), lysis of fragile human erythrocytes in autologous serum, cobra venom factor; assay type: biochemical; conditions: In Vitro; serial two-fold dilution assay, higher well number indicates higher activity
Text: as §1

Forssman vasculitis = assay: Forssman Vasculitis Test; conditions: In Vivo; guinea pigs; inhibition of combined index of lesion diameter, edema and hemorrhage; prior intraperitoneal injection at 200 mg/kg
Text: as §1

[2] = test system: complement level in undiluted serum; assay: Complement Level Reduction Test; conditions: In Vivo; serum of dosed guinea pigs compared to undosed controls, capillary tube method
Text: as §1

SMILES | 026 (C1 inhibitor), activity in wells (activated human C1) | 035 (C3-C9 inhibitor), activity in wells [1] | 036 (C-Shunt inhibitor), activity in wells (shunt pathway) | Forssman (Forssman vasculitis) | % Reduction Complement [2]
O=C(Nc1cccc(C(=O)Nc2ccc3c(S(=O)(=O)[O-])cccc3c2S(=O)(=O)[O-])c1)Nc1cccc(C(=O)Nc2ccc3c(S(=O)(=O)[O-])cccc3c2S(=O)(=O)[O-])c1.[Na+].[Na+].[Na+].[Na+] [2,2'-[Ureylenebis(m-phenylenecarbonylimino)]di-1,5-naphthalenedisulfonic acid tetrasodium salt] | NEG | 1 wells | 1 wells | 10 | -18%
O=C(Nc1cccc(C(=O)Nc2ccc3cc(S(=O)(=O)[O-])cc(S(=O)(=O)[O-])c3c2)c1)Nc1cccc(C(=O)Nc2ccc3cc(S(=O)(=O)[O-])cc(S(=O)(=O)[O-])c3c2)c1.[Na+].[Na+].[Na+].[Na+] [7,7'-[Ureylenebis(m-phenylenecarbonylimino)]di-1,3-naphthalenedisulfonic acid tetrasodium salt] | 3 wells | 1 wells | 1 wells | 8 | -33%
O=C(Nc1ccc(C(=O)Nc2ccc(S(=O)(=O)[O-])c3cccc(S(=O)(=O)[O-])c23)cc1)Nc1ccc(C(=O)Nc2ccc(S(=O)(=O)[O-])c3cccc(S(=O)(=O)[O-])c23)cc1.[Na+].[Na+].[Na+].[Na+] [4,4'-[Ureylenebis(p-phenylenecarbonylimino)]di-1,5-naphthalenedisulfonic acid tetrasodium salt] | NEG | NEG | NEG | 12 | +58%
O=C(Nc1cccc(C(=O)Nc2cc(S(=O)(=O)[O-])cc3cc(S(=O)(=O)[O-])ccc23)c1)Nc1cccc(C(=O)Nc2cc(S(=O)(=O)[O-])cc3cc(S(=O)(=O)[O-])ccc23)c1.[Na+].[Na+].[Na+].[Na+] [4,4'-[Ureylenebis(m-phenylenecarbonylimino)]di-2,7-naphthalenedisulfonic acid tetrasodium salt] | 3 wells | NEG | NEG | 0 | +4%
O=C(Nc1cccc(C(=O)Nc2ccc(S(=O)(=O)[O-])c3cccc(S(=O)(=O)[O-])c23)c1)Nc1cccc(C(=O)Nc2ccc(S(=O)(=O)[O-])c3cccc(S(=O)(=O)[O-])c23)c1.[Na+].[Na+].[Na+].[Na+] [4,4'-[Ureylenebis(m-phenylenecarbonylimino)]di-1,5-naphthalenedisulfonic acid tetrasodium salt] | 2 wells | NEG | NEG | 10 | -18%
